In publication PMC5382548 (Scientific Reports, 2015):
pIC50: −log10 of the molar value.

Key:
[1] = test system: UTR-1 G4 in the 5′UTR of KRAS mRNA; assay: FRET melting assay, UTR-1 RNA G4; assay type: binding; settings: G4 0.2 μM, ligand 1 μM
Protocol: Two compounds 2d and 3e were selected and evaluated for their ability to stabilize the 32-mer sequence in the NHE of the human KRAS promoter (KRAS32R)[12], two G4 motifs in the 5′UTR of KRAS mRNA (UTR-1 and UTR-2)[24] and a 21-mer DNA G4 from the human telomeric sequence (F21T). The KRAS32R sequence has been described as forming two G4 structures which exist in equilibrium. One sequence folds into a G4 (Q1) with a Tm of ~55°C that is disrupted on increasing the temperature and then, the full-length 32-mer sequence folds into a new G4 (Q2, Tm of ~72°C)[13]. In our assay, the KRAS32R sequence (in the presence or absence of IQcs) folded in a single G4 structure (Tm ≈ 54°C), as shown by the single inflection for the first derivative of the FRET melting data (Sup. Inf.; Figure S4). This monophasic behaviour was also observed in the presence of TMPyP4[13].
Oligonucleotide sequences were purchased from Eurofins MWG Synthesis GmbH, Germany or STAB VIDA Genomics Lab, Caparica, Lisbon, Portugal. […]
The ability of indolo[3,2-c]quinolines to stabilize DNA sequences was investigated using a Fluorescence Resonance Energy Transfer (FRET) assay as reported elsewhere.

[2] = test system: UTR-1 (RNA, G4) GCGGCGGCGGAGG; assay: FRET melting; settings: 60 mM K+; K-cacodylate pH 7.4; 0.2 μM RNA, 1 μM compound; SD ≤ 0.2
[3] = test system: KRAS21R (DNA, G4) AGGGCGGTGTGGGAAGAGGGA; assay: spectrofluorimetric titration, one-site Hill slope fit; settings: 60 mM K+, K-cacodylate pH 7.4, 25 °C, 1 μM compound, apparent, SD ≤ 0.2 × 10^6
[4] = test system: 26ds (ds26) (DNA, duplex) CAATCGGATCGAATTCGATCCGATTG; assay: as above; settings: 60 mM K+, K-cacodylate pH 7.4, 25 °C, 1 μM compound, apparent, SD ≤ 0.2 × 10^6
MiaPaCa2 (pancreatic) = assay: SRB short-term cytotoxicity assay, MiaPaCa2; assay type: cell-based; settings: Homo sapiens, MIA PaCa-2, 96 h
Protocol: Short-term anti-proliferative assays were carried out by two different assays using a panel of human cancer and non-malignant human cell lines. […] The transformed human embryonic kidney cell line HEK293T (wt KRAS) was sensitive to all tested drugs, including TMPyP4, a cationic porphyrin established as a G4 ligand, as well as the anticancer drug 5-fluorouracil (5-FU).
Human cell lines, breast carcinoma (MCF7), lung carcinoma (A549), pancreatic cancer (MIA PaCa2, Panc-1), immortalised telomerase-negative human lung fibroblast (ALT) and normal human lung fibroblast (WI-38), were all purchased from American Type Cell Culture (ATCC). Cell lines were maintained in appropriate medium supplemented with 10% fetal bovine serum (Invitrogen, UK), 2 mM L-glutamine (Invitrogen, Netherlands), and other components as specified by the suppliers. All cell lines were maintained at 37°C, 5% CO2, and routinely passaged. Short-term growth inhibition was measured using the SRB assay as described previously[43] […]
After electrophoretic transfer onto nitrocellulose membranes, immunoblots were blocked with 5% milk solution, and next incubated overnight at 4 °C with primary mouse monoclonal antibody reactive to KRAS/p53 (#sc-30/sc-126; Santa Cruz Biotechnology Inc., Santa Cruz, CA, USA). […] Steady-state protein levels were expressed as mean ±SEM from at least three independent experiments.

[5] = test system: KRAS21R (FRET-labelled) (DNA, G4) AGGGCGGTGTGGGAAGAGGGA; assay: FRET melting; settings: 60 mM K+; K-cacodylate pH 7.4; 0.2 μM DNA, 1 μM compound; SD ≤ 0.2

CCN(CC)CCCNc1ccc2c(c1)c1[nH]c3ccccc3c1c[n+]2C [2d]
ΔTm UTR-1 [1]: 5.1 °C
ΔTm [2]: 5.1 °C
Ka ([3]; Hill 2.0): 4.4e+06 M⁻¹
Ka ([4]; Hill 1.5): 2.8e+06 M⁻¹

CCN(CC)CCCNc1ccc2c(c1)[nH]c1c2c[n+](C)c2ccc(NCCCN(CC)CC)cc12.[Cl-] [3e]
ΔTm UTR-1 [1]: 15.7 °C
pIC50 (MiaPaCa2 (pancreatic)): 5.70
ΔTm [2]: 15.7 °C
binding [5]: yes
Ka ([3]; Hill 2.4): 8.6e+06 M⁻¹
Ka ([4]; Hill 2.5): 3.2e+06 M⁻¹

Cn1cc2c3ccccc3nc-2c2cc(Br)ccc21 [2a, 2-bromo-5-methyl-indolo[3,2-c]quinoline]
pIC50 (MiaPaCa2 (pancreatic)): 5.66
binding [5]: weak
